{"source": "patent US8884061B2", "about": "“Compositions and methods of use of electron transport system inhibitors” (priority 2006, dated 2014)", "key": {"[1]": {"tested_on": "MRSA 2441-05254", "test": "MIC, other bacteria (Table 3)", "type": "cell-based, S. aureus", "details": "Staphylococcus aureus, inoculum size 10^6 CFU/ml, read-out: MIC"}, "[2]": {"tested_on": "MRSA 2441-05262", "test": "MIC, other bacteria (Table 3)", "type": "cell-based, S. aureus", "details": "Staphylococcus aureus, inoculum size 10^6 CFU/ml, read-out: MIC"}, "[3]": {"tested_on": "E. faecium NCTC 12203 (VRE)", "test": "MIC, other bacteria (Table 3)", "type": "cell-based", "details": "Enterococcus faecium, high level VCM-resistant, Van A, inoculum size 10^6 CFU/ml, read-out: MIC"}, "[4]": {"tested_on": "MRSE 2442-05030", "test": "MIC, other bacteria (Table 3)", "type": "cell-based, S. epidermidis", "details": "Staphylococcus epidermidis, inoculum size 10^6 CFU/ml, read-out: MIC"}, "[5]": {"tested_on": "MRSA 2441-05104", "test": "MIC, other bacteria (Table 3)", "type": "cell-based, S. aureus", "details": "Staphylococcus aureus, inoculum size 10^6 CFU/ml, read-out: MIC"}, "[6]": {"tested_on": "VRSA 2441-T0044", "test": "MIC, other bacteria (Table 3)", "type": "cell-based, S. aureus", "details": "Staphylococcus aureus, VRSA"}, "[7]": {"tested_on": "MRSA 2441-05112", "test": "MIC, other bacteria (Table 3)", "type": "cell-based, S. aureus", "details": "Staphylococcus aureus, inoculum size 10^6 CFU/ml, read-out: MIC"}, "[8]": {"tested_on": "M. tuberculosis H37Rv", "test": "MIC, agar (7H11) dilution method", "type": "cell-based", "details": "Mycobacterium tuberculosis, H37RV"}, "[9]": {"tested_on": "E. faecalis ATCC 51299 (VRE)", "test": "MIC, other bacteria (Table 3)", "type": "cell-based", "details": "Enterococcus faecalis, low level VCM-resistant, Van B, inoculum size 10^6 CFU/ml, read-out: MIC"}, "[10]": {"tested_on": "E. faecalis ATCC 29212", "test": "MIC, other bacteria (Table 3)", "type": "cell-based", "details": "Enterococcus faecalis, ATCC29212, inoculum size 10^6 CFU/ml, read-out: MIC"}, "[11]": {"tested_on": "M. tuberculosis Kurono", "test": "MIC, agar (7H11) dilution method", "type": "cell-based", "details": "Mycobacterium tuberculosis; M. tuberculosis Kurono; agar (7H11) dilution; read-out: Minimum inhibitory concentrations (MIC)"}, "[12]": {"tested_on": "E. coli ATCC 25922", "test": "MIC, other bacteria (Table 3)", "type": "cell-based", "details": "Escherichia coli, ATCC25922, inoculum size 10^6 CFU/ml, read-out: MIC"}, "[13]": {"tested_on": "M. aurum", "test": "MIC, agar (7H11) dilution method", "type": "cell-based", "details": "Mycolicibacterium aurum, read-out: Minimum inhibitory concentrations (MIC)"}, "[14]": {"tested_on": "M. smegmatis Takeo", "test": "MIC, agar (7H11) dilution method", "type": "cell-based", "details": "Mycolicibacterium smegmatis, read-out: Minimum inhibitory concentrations (MIC)"}, "[15]": {"tested_on": "MRSE 2442-05118", "test": "MIC, other bacteria (Table 3)", "type": "cell-based, S. epidermidis", "details": "Staphylococcus epidermidis, inoculum size 10^6 CFU/ml, read-out: MIC"}, "[16]": {"tested_on": "M. avium Flamingo", "test": "MIC, agar (7H11) dilution method", "type": "cell-based", "details": "Mycobacterium avium, read-out: Minimum inhibitory concentrations (MIC)"}, "[17]": {"tested_on": "S. epidermidis ATCC 12228", "test": "MIC, other bacteria (Table 3)", "type": "cell-based", "details": "Staphylococcus epidermidis, ATCC12228, inoculum size 10^6 CFU/ml, read-out: MIC"}, "[18]": {"tested_on": "P. aeruginosa ATCC 27853", "test": "MIC, other bacteria (Table 3)", "type": "cell-based", "details": "Pseudomonas aeruginosa, ATCC27853, inoculum size 10^6 CFU/ml, read-out: MIC"}, "[19]": {"tested_on": "MRSA 2441-05129", "test": "MIC, other bacteria (Table 3)", "type": "cell-based, S. aureus", "details": "Staphylococcus aureus, inoculum size 10^6 CFU/ml, read-out: MIC"}, "[20]": {"tested_on": "MRSE 2442-05053", "test": "MIC, other bacteria (Table 3)", "type": "cell-based, S. epidermidis", "details": "Staphylococcus epidermidis, inoculum size 10^6 CFU/ml, read-out: MIC"}, "[21]": {"tested_on": "S. aureus ATCC 29213", "test": "MIC, other bacteria (Table 3)", "type": "cell-based", "details": "Staphylococcus aureus, ATCC29213, inoculum size 10^6 CFU/ml, read-out: MIC"}, "[22]": {"tested_on": "S. marsascens ATCC 14756", "test": "MIC, other bacteria (Table 3)", "type": "cell-based", "details": "inoculum size 10^6 CFU/ml, read-out: MIC"}, "[23]": {"tested_on": "MRSE 2442-05110", "test": "MIC, other bacteria (Table 3)", "type": "cell-based, S. epidermidis", "details": "Staphylococcus epidermidis, inoculum size 10^6 CFU/ml, read-out: MIC"}, "[24]": {"tested_on": "E. faecium ATCC 49224", "test": "MIC, other bacteria (Table 3)", "type": "cell-based", "details": "Enterococcus faecium, ATCC49224; E. faecium ATCC 49224, GM-resistant; inoculum size 10^6 CFU/ml; read-out: MIC"}, "[25]": {"tested_on": "M. bovis BCG Tokyo", "test": "microbe, parasite or virus in culture", "type": "cell-based", "details": "Mycobacterium tuberculosis variant bovis BCG, BCG, read-out: Minimum inhibitory concentrations (MIC)"}, "[26]": {"tested_on": "S. aureus ATCC 43300 (MRSA)", "test": "MIC, other bacteria (Table 3)", "type": "cell-based", "details": "Staphylococcus aureus, inoculum size 10^6 CFU/ml, read-out: MIC"}, "[27]": {"tested_on": "MRSE 2442-05047", "test": "MIC, other bacteria (Table 3)", "type": "cell-based, S. epidermidis", "details": "Staphylococcus epidermidis, inoculum size 10^6 CFU/ml, read-out: MIC"}, "[28]": {"tested_on": "VRSA 2441-T0041", "test": "MIC, other bacteria (Table 3)", "type": "cell-based, S. aureus", "details": "Staphylococcus aureus; VRSA 2441-T0041, low level VCM-resistant; inoculum size 10^6 CFU/ml; read-out: MIC"}, "[29]": {"tested_on": "MRSA 2441-05223", "test": "MIC, other bacteria (Table 3)", "type": "cell-based, S. aureus", "details": "Staphylococcus aureus, inoculum size 10^6 CFU/ml, read-out: MIC"}, "[30]": {"tested_on": "E. faecalis NCTC 12201 (VRE)", "test": "MIC, other bacteria (Table 3)", "type": "cell-based", "details": "Enterococcus faecalis, high level VCM-resistant, Van A, inoculum size 10^6 CFU/ml, read-out: MIC"}, "[31]": {"tested_on": "M. intracellularae ATCC 15984", "test": "MIC, agar (7H11) dilution method", "type": "cell-based", "details": "read-out: Minimum inhibitory concentrations (MIC)"}, "[32]": {"tested_on": "M. fortuitum NIHJ1615", "test": "MIC, agar (7H11) dilution method", "type": "cell-based", "details": "Mycolicibacterium fortuitum, read-out: Minimum inhibitory concentrations (MIC)"}, "[33]": {"tested_on": "P. mirabilis ATCC 4630", "test": "MIC, other bacteria (Table 3)", "type": "cell-based", "details": "Proteus mirabilis, ATCC4630, inoculum size 10^6 CFU/ml, read-out: MIC"}, "[34]": {"tested_on": "MRSE 2442-05060", "test": "MIC, other bacteria (Table 3)", "type": "cell-based, S. epidermidis", "details": "Staphylococcus epidermidis, inoculum size 10^6 CFU/ml, read-out: MIC"}, "[35]": {"tested_on": "K. pneumoniae ATCC 27736", "test": "MIC, other bacteria (Table 3)", "type": "cell-based", "details": "Klebsiella pneumoniae, ATCC27736, inoculum size 10^6 CFU/ml, read-out: MIC"}, "[36]": {"tested_on": "M. kansasii NIHJ1619", "test": "MIC, agar (7H11) dilution method", "type": "cell-based", "details": "Mycobacterium kansasii, read-out: Minimum inhibitory concentrations (MIC)"}}, "note": "Like-named read-outs stand apart in the source and are kept apart here."}
{"smiles": "C=CCN(C)CCCCCCCCOc1ccc(C(O)c2ccc(Cl)cc2)c(Cl)c1", "note": "(stereo not shown) [Cpd #21, (4-(8-(allyl(methyl)amino)octyloxy)-2-chlorophenyl)(4-chlorophenyl)methanol]", "values": [{"measurement": "MIC", "setting": "[1]", "result": "> 100", "unit": "µg/mL"}, {"measurement": "MIC", "setting": "[2]", "result": 100, "unit": "µg/mL"}, {"measurement": "MIC", "setting": "[3]", "result": 50, "unit": "µg/mL"}, {"measurement": "MIC", "setting": "[4]", "result": 50, "unit": "µg/mL"}, {"measurement": "MIC", "setting": "[5]", "result": 50, "unit": "µg/mL"}, {"measurement": "MIC", "setting": "[6]", "result": "> 100", "unit": "µg/mL"}, {"measurement": "MIC", "setting": "[7]", "result": "> 100", "unit": "µg/mL"}, {"measurement": "MIC", "setting": "[8]; M. tuberculosis H37Rv, table line r9 (3rd of 5 so labelled), read-out: Minimum inhibitory concentrations (MIC)", "result": 12.5, "unit": "µg/mL"}, {"measurement": "MIC", "setting": "[8]; read-out: Minimum inhibitory concentrations (MIC), M. tuberculosis H37Rv, table line r7 (1st of 5 so labelled)", "result": 25, "unit": "µg/mL"}, {"measurement": "MIC", "setting": "[8]; read-out: Minimum inhibitory concentrations (MIC), M. tuberculosis H37Rv, table line r8 (2nd of 5 so labelled)", "result": 25, "unit": "µg/mL"}, {"measurement": "MIC", "setting": "[8]; read-out: Minimum inhibitory concentrations (MIC), M. tuberculosis H37Rv, table line r10 (4th of 5 so labelled)", "result": 25, "unit": "µg/mL"}, {"measurement": "MIC", "setting": "[8]; read-out: Minimum inhibitory concentrations (MIC), M. tuberculosis H37Rv, table line r11 (5th of 5 so labelled)", "result": 25, "unit": "µg/mL"}, {"measurement": "MIC", "setting": "[9]", "result": "> 100", "unit": "µg/mL"}, {"measurement": "MIC", "setting": "[10]", "result": 100, "unit": "µg/mL"}, {"measurement": "MIC", "setting": "[11]", "result": 25, "unit": "µg/mL"}, {"measurement": "MIC", "setting": "[12]", "result": "> 100", "unit": "µg/mL"}, {"measurement": "MIC", "setting": "[13]", "result": "> 25", "unit": "µg/mL"}, {"measurement": "MIC", "setting": "[14]", "result": "> 25", "unit": "µg/mL"}, {"measurement": "MIC", "setting": "[15]", "result": 50, "unit": "µg/mL"}, {"measurement": "MIC", "setting": "[16]", "result": "> 25", "unit": "µg/mL"}, {"measurement": "MIC", "setting": "[17]", "result": 50, "unit": "µg/mL"}, {"measurement": "MIC", "setting": "[18]", "result": "> 100", "unit": "µg/mL"}, {"measurement": "MIC", "setting": "[19]", "result": "> 100", "unit": "µg/mL"}, {"measurement": "MIC", "setting": "[20]", "result": 50, "unit": "µg/mL"}, {"measurement": "MIC", "setting": "[21]", "result": 100, "unit": "µg/mL"}, {"measurement": "MIC", "setting": "[22]", "result": "> 100", "unit": "µg/mL"}, {"measurement": "MIC", "setting": "[23]", "result": 50, "unit": "µg/mL"}, {"measurement": "MIC", "setting": "[24]", "result": 50, "unit": "µg/mL"}, {"measurement": "MIC", "setting": "[25]", "result": 25, "unit": "µg/mL"}, {"measurement": "MIC", "setting": "[26]", "result": 100, "unit": "µg/mL"}, {"measurement": "MIC", "setting": "[27]", "result": 50, "unit": "µg/mL"}, {"measurement": "MIC", "setting": "[28]", "result": "> 100", "unit": "µg/mL"}, {"measurement": "MIC", "setting": "[29]", "result": "> 100", "unit": "µg/mL"}, {"measurement": "MIC", "setting": "[30]", "result": 100, "unit": "µg/mL"}, {"measurement": "MIC", "setting": "[31]", "result": "> 25", "unit": "µg/mL"}, {"measurement": "MIC", "setting": "[32]", "result": "> 25", "unit": "µg/mL"}, {"measurement": "MIC", "setting": "[33]", "result": "> 100", "unit": "µg/mL"}, {"measurement": "MIC", "setting": "[34]", "result": 50, "unit": "µg/mL"}, {"measurement": "MIC", "setting": "[35]", "result": "> 100", "unit": "µg/mL"}, {"measurement": "MIC", "setting": "[36]", "result": "> 25", "unit": "µg/mL"}]}
